Results from patent US20180235942A1 (priority 2015, published 2018).
Like-named read-outs stand apart in the source and are kept apart here.

Legend:
[1] = system: healthy elderly male and female subjects; design: species or system human; details: in vivo, po
[2] = clinical; details: both, human, in vivo
[3] = system: healthy, male and female subjects; assay: Driving performance study, real driving on the road after evening or middle-of-the-night dosing; type: in vivo, human; details: for effect on driving: gaboxadol 15 mg; for effect on memory test, body sway, DSST or critical tracking: in vivo
Source text: The study participants included healthy, male and female subjects between 21 and 45 years of age, with a valid drivers license for at least 3 years.
Following a cognitive and psychomotor test battery, the driving test started at 9 am and lasted for one hour.

[4] = system: patients with a history of drug abuse; details: cited from earlier work
[5] = system: normal healthy adult subjects; assay: Intravenous and oral tolerability and safety in healthy adult subjects; type: in vivo, human
Source text: There was a washout of 4 days between each treatment period.
The study included healthy, male and female subjects between 18 and 45 years of age within 30% of ideal weight. The subjects in Part 1 of the study could be of either gender, but within Part 2 of the study there had to be at least 4 subjects of each gender.

[6] = system: healthy adults subjected to a 5-hour sleep restriction; assay: Daytime performance after 5-hour sleep restriction (MSLT, SWS, KSS); type: in vivo, human
Experimental: The study included a 2-night single-blind placebo run-in period, a 4-night double-blind treatment period during which sleep was restricted to 5 hours and a 2-night single-blind placebo run-out period. The study included healthy male and female volunteers 18 to <55 years of age.
The primary endpoints included observations based on the Multiple Sleep Latency Test (MSLT) and Slow Wave Sleep (SWS) assessment.

[7] = system: insomnia; details: three-month efficacy study; cited from earlier work
[8] = middle-of-the-night administration, zolpidem 10 mg

## CCN(CC)CCN1C(=O)CN=C(c2ccccc2F)c2cc(Cl)ccc21 [Flurazepam]
[1]
  residual effect on Choice Reaction Time and Critical Flicker Fusion: showed significant effect

## Oc1noc2c1CCNC2 [gaboxadol, 4,5,6,7-tetrahydroisoxazolo [5,4-c]pyridine-3-ol]
[2]
  bioavailability: 92%
human, in vivo
  Renal clearance (CLR): greater than glomerular filtration rate
human, in vivo, iv
  steady-state volume of distribution (Vss): moderate
  systemic clearance (CL): moderate
Oral administration
  AUC0-inf and Cmax versus dose: increased with increasing dose
Single intravenous doses
  AUC0-inf and Cmax versus dose: increased with increasing dose
[3]; evening and middle-of-the-night dose
  tolerability: well tolerated
[3]; evening dose, 15 mg
  effect on driving compared with 0.05% blood alcohol concentration: less than the effect observed at a 0.05% blood alcohol concentration
[3]; evening dose, zopiclone 7.5 mg
  effect on driving: statistically significant effect
[3]; evening treatment
  most frequent adverse events: headache and somnolence
[3]
  effect on memory test, body sway, DSST or critical tracking: no effect
[3]; [8]
  effect on driving: clinically relevant impairing effect
[3]; middle-of-the-night treatment
  most frequent adverse events: dizziness, nausea and somnolence
[4]
  psychiatric adverse events: steep increase in psychiatric adverse events
[5]; both parts of the study
  most common clinical adverse experiences: somnolence and dizziness
  serious adverse experiences: no serious adverse experiences reported
[5]; single intravenous doses of 5 and 10 mg, single oral doses from 2.5 to 20 mg
  tolerability: generally well tolerated
[1]
  residual effect on Choice Reaction Time and Critical Flicker Fusion: did not show residual effect
  residual effects on other measurements (MSLT, DSST, Tracking, Memory tests, Body Sway, Leeds Sleep Evaluation Questionnaire): did not show any signs of residual effects
[6]; 15 mg, Sleep Restriction period, p=0.047, 1 sided
  daytime sleepiness versus placebo (MSLT): significantly less daytime sleepiness
[6]; 15 mg, last two Sleep Restriction days
  MSLT, longer than placebo on average: 2.01 min
[6]; Sleep Restriction period, p<0.001, 1 sided
  slow wave sleep (SWS) versus placebo: significantly more SWS
[6]; in vivo
  biophysiological measures of stress (heart rate variability, cortisol levels, catecholamine levels, body temperature) versus placebo: no differences
  daytime performance, neurocognitive battery effect sizes: no strong evidence that gaboxadol improves daytime performance
[6]; last two Sleep Restriction days, p=0.058, 1 sided, LDA model
  Karolinska Sleepiness Score (KSS), less than placebo on average: 0.68
[6]; last two Sleep Restriction nights
  SWS, longer than placebo on average: 20.53 min
[7]
  effects in sleep onset and sleep maintenance: failed to show significant effects

## Cc1ccc(-c2nc3ccc(C)cn3c2CC(=O)N(C)C)cc1 [zolpidem]
[3]; [8]
  effect on driving: numerically greater effect

## CN1CCN(C(=O)OC2c3nccnc3C(=O)N2c2ccc(Cl)cn2)CC1 (stereo not shown) [zopiclone]
[3]; evening dose, zopiclone 7.5 mg
  effect on driving: numerically greater effect
[3]
  effect on memory test, body sway, DSST or critical tracking: had effect on several of these tests
